Experiment [1] concerns the target T1, C. botulinum SAM-AMP lyase (Clostridium botulinum, UniProt A5I3U9).
T1 construct: gene CBO2178

Experiment [2] has as its target T1, C. botulinum SAM-AMP lyase. This is another data set of the same source.

The structures appear in SMILES notation.

T1 sequence (A5I3U9 1-124 limits assumed): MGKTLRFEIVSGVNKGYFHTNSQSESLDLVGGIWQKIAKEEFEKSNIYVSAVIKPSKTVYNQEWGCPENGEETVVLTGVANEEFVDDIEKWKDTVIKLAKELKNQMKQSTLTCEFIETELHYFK

Consider `CSC[C@H]1O[C@@H](n2cnc3c(N)ncnc32)[C@H](O)[C@@H]1OP(=O)(O)OC[C@H]1O[C@@H](n2cnc3c(N)ncnc32)[C@H](O)[C@@H]1O` [MTA-AMP], for which the “electrophoretic mobility shift assay, native gel” value in experiment [1] is “SAM-AMP lyase binds its product MTA-AMP, but not SAH-AMP or SFG-AMP”.
On to `C[S+](CC[C@H](N)C(=O)O)C[C@H]1O[C@@H](n2cnc3c(N)ncnc32)[C@H](O)[C@@H]1OP(=O)(O)OC[C@H]1O[C@@H](n2cnc3c(N)ncnc32)[C@H](O)[C@@H]1O` (some centres unmarked) [SAM-AMP], for which the “HPLC and LC-MS of cleavage to MTA-AMP and homoserine lactone” value in experiment [2] is “HPLC analysis and mass spectrometry confirmed that SAM-AMP was degraded, generating the previously observed MTA-AMP product”.

(Values after PMC12255297 (Nucleic Acids Research, 2025).)
